PMC8347512, “Synthesis and Biological Assessment of 4,1-Benzothiazepines with Neuroprotective Activity on the Ca^2+ Overload for the Treatment of Neurodegenerative Diseases and Stroke” (Molecules, 2021)
pIC50: −log10 of the molar value. Like-named read-outs stand apart in the source and are kept apart here.

Columns and labels:
SH-SY5Y cells [1] = assay: Per se toxicity, MTT reduction, SH-SY5Y cells; assay type: cell-based
Method: (§1) The neuroblastoma SH-SY5Y cell line was obtained from the American Type Culture Collection (ATCC-CRL-2266), maintained and cultured in a 1:1 mixture of MEM and F12 media with 10% of fetal bovine serum (FBS), according to procedures previously described. For fluorescence-based [Ca^2+]c measurements, SH-SY5Y cells were seeded in clear-bottomed, 96-well black plates at a density of 40,000 cells/well. For viability assays, SH-SY5Y cells were seeded in 48-well plates at a density of 70,000 cells/well following the procedure recently reported. Rat cortical embryonic neurons were prepared from 19-day-old embryos directly seeded in the plate well treated with poly-D-lysine in neurobasal medium (Gibco 21103, Madrid, Spain) supplemented with 1% of L-glutamine (Sigma, G6392), 0.5% of penicillin/streptomycin and 0.1% of gentamincine. In fluorescence-based [Ca^2+]c measurement, neurons were seed at clear-bottomed, 96-well black plates at a density of 30,000 cells/well. For viability assays, the rat cortical neurons were also seeded in 48-well plates at a density of 40,000 cells/well. All the biological assays were conducted under sterile conditions.
The per se toxicity of the new synthetized compounds was assessed in both cell cultures by the method of MTT reduction. […] The viability of cultures was measured 20 h later, following a procedure recently described. […]

[2] = Solubility as observed during testing; assay type: physicochemical
NMDA receptors = assay: Blockade of NMDA-evoked cytosolic Ca2+ elevation (Fluo-4/AM) in rat cortical neurons; assay type: cell-based; conditions: for pIC50: rat cortical embryonic neurons, NMDA 10 μM, compounds 1 to 30 μM, read-out: IC50, NMDA-evoked [Ca2+]c elevation
Method: as §1
To assess the blocking effect of compounds on the VGCC, we used SH-SY5Y cells charged with the Ca^2+-sensitive fluorescent dye Fluo-4/AM at 10 μM in Krebs-HEPES buffer, following a protocol recently described. Compounds were incubated at the desired concentrations (1, 3, 10, and 30 μM). The Ca^2+ entry was favored by addition of K^+ 70 mM to the extracellular medium. […] Rat cortical neurons were charged with Fluo-4/AM at 3 μM in Krebs-HEPES buffer and compounds incubated at same concentrations than before. To stimulate Ca^2+ entry through the NMDA-sensitive glutamate receptors, NMDA was applied at 10 μM. In both cases, fluorescence oscillations as result of the [Ca^2+]c increases were real-time monitored in a multi-well fluorescence plate reader (FluoStar Optima, BMG, Germany), with excitation and emission wavelengths of 485 and 520 nm, respectively. Data were calculated as fluorescence increase (ΔF), according to the formula: ΔF=Fx−Fo /Fmax−Fmin where Fx is the maximum fluorescence obtained after Ca^2+ entry stimulation, F0 is the averaged fluorescence before, Fmax is the maximum fluorescence of the well obtained by treating cells with 5% Triton X-100, and the Fmin is the minimum fluorescence of well obtained by adding MnCl2 1 M to the previously Triton-lysed cells. The ΔF data were normalized respect to the control (ΔFc).

SH-SY5Y cells [3] = assay: Neuroprotection against rotenone/oligomycin A (R/O), MTT, SH-SY5Y cells; assay type: cell-based; conditions: R/O 30/10 μM, compounds 10 μM
Method: as §1
(§2) The effect of compounds on the SH-SY5Y cells and rat cortical neurons viability compromised of different toxics was also evaluated by method of MTT reduction. Twenty-four hours after seeding, SH-SY5Y cells were preincubated with compounds at the concentration of 10 μM for 24 h. Afterwards, MEM/F12 medium was replaced by one fresh with 1% FBS, compounds at the same concentration, and rotenone/oligomycin A administered to media at the concentration of 30/10 μM, respectively. The cultures’ viability was measured 20 h later, following the MTT procedure recently described. As reference neuroprotective compound, melatonin 10 nM was selected. In the case of the rat cortical neurons, 7 days after seeding in 48-well plates, neurons were preincubated adding the compounds at a final concentration of 10 μM for 24 h. Then, toxic stimuli of 50 µM of glutamate was added to the wells. After 20 h, cell viability was measured by the MTT procedure. Here, the reference protective compound used was memantine (30 nM).

VGCC = assay: Blockade of 70 mM K+-evoked cytosolic Ca2+ elevation (Fluo-4/AM) in SH-SY5Y cells; assay type: cell-based
Method: as §1
To assess the blocking effect of compounds on the VGCC, we used SH-SY5Y cells charged with the Ca^2+-sensitive fluorescent dye Fluo-4/AM at 10 μM in Krebs-HEPES buffer, following a protocol recently described. Compounds were incubated at the desired concentrations (1, 3, 10, and 30 μM). The Ca^2+ entry was favored by addition of K^+ 70 mM to the extracellular medium. To evaluate the blocking effect of compounds on NMDA receptors, we have followed a protocol recently reported by our research group. Rat cortical neurons were charged with Fluo-4/AM at 3 μM in Krebs-HEPES buffer and compounds incubated at same concentrations than before. To stimulate Ca^2+ entry through the NMDA-sensitive glutamate receptors, NMDA was applied at 10 μM. In both cases, fluorescence oscillations as result of the [Ca^2+]c increases were real-time monitored in a multi-well fluorescence plate reader (FluoStar Optima, BMG, Germany), with excitation and emission wavelengths of 485 and 520 nm, respectively. Data were calculated as fluorescence increase (ΔF), according to the formula: ΔF=Fx−Fo /Fmax−Fmin where Fx is the maximum fluorescence obtained after Ca^2+ entry stimulation, F0 is the averaged fluorescence before, Fmax is the maximum fluorescence of the well obtained by treating cells with 5% Triton X-100, and the Fmin is the minimum fluorescence of well obtained by adding MnCl2 1 M to the previously Triton-lysed cells. The ΔF data were normalized respect to the control (ΔFc). Data are presented as percentage of blockade (100% ΔF) at the concentration of 10 μM, or as IC50, i.e., the concentration of compound capable of halving the ΔFc (%ΔF = 50).

rat cortical neurons = assay: Neuroprotection against glutamate 50 μM, MTT, rat cortical neurons; assay type: cell-based; conditions: compounds 10 μM
Method: as §1, §2

[4] = Blood-brain barrier permeation assay (PAMPA), porcine brain lipid; assay type: in vitro ADME; conditions: pH 7.4, threshold value of 40 nm/s, read-out: Pe, in vitro permeability (PAMPA-BBB)
Method: The parallel artificial membrane permeation assay (PAMPA) was used to predict the capacity of compounds to cross the blood–brain barrier (BBB) by passive diffusion, in a similar manner as previously described. Compounds were dissolved in 10 mM phosphate-buffered saline (PBS) buffer (pH 7.4) to the concentration of 100 µM. The filter membrane of the donor 96-well plate (Multiscreen IP sterile clear plate PDVF membrane, pore size […]) was impregnated with 4 µL of porcine brain lipid (PBL) (Avanti Polar Lipids, Inc., Alabaster, AL, USA) in dodecane (20 mg/mL), and after 5 min, 180 µL of each compound solution was added. The acceptor 96-well plate (Multiscreen, Millipore Corp. Burlington, MA, USA) was filled with 180 µL of PBS and 1% of DMSO. Finally, the donor filter plate was carefully put on the acceptor plate to form a “sandwich”, which was left undisturbed for 4 h at rt. After incubation, an UV plate reader determined the concentration of compounds in both acceptor and donor wells (150 µL/well) as the maximum absorption wavelength of each compound. Concentration of the compounds in the donor and acceptor well, and equilibrium concentration were calculated from the standard curve and expressed as the permeability (Pe), according to the following formula: logPe=logC×−ln1−drugacceptor/drugequilibrium whereC=Vdonor×Vaceptor/Vdonor+Vaceptor×Area×Time)
Results are expressed as mean ± SEM of three different experiments in duplicate.

Row | Structure (SMILES) | melting point | Effect on cell viability of SH-SY5Y cells at 30 μM (SH-SY5Y cells [1]; 30 μM) | Solubility (observation) [2] | Effect on cell viability of SH-SY5Y cells (per se toxicity) (SH-SY5Y cells [1]; compounds at 1, 3, 10 and 30 μM) | pIC50 (NMDA receptors) | Protection against R/O-induced oxidative stress (in words) (SH-SY5Y cells [3]) | pIC50 (VGCC; compounds 1 to 30 μM, Fluo-4/AM, read-out: IC50, concentration halving the 70 mM K+-evoked Ca2+ elevation) | Protection against glutamate-elicited neurotoxicity (in words) (rat cortical neurons) | Mitigation of the NMDA-elicited Ca2+ increase compared with memantine (NMDA receptors; rat cortical neurons, compounds 10 μM, memantine 10 μM) | Papp at 4 h, 100 µM [4] | Decrease of K+-evoked Ca2+ signaling compared with nifedipine (VGCC; compounds 10 μM, nifedipine 10 μM) | pIC50 (VGCC; read-out: IC50, concentration halving the 70 mM K+-evoked Ca2+ elevation, compounds 1 to 30 μM, Fluo-4/AM)
1 | CC(C)c1cccc(C2SCC(=O)Nc3ccc(Cl)cc32)c1 (stereo not drawn) [compound 13, 7-Chloro-5-(3′-isopropylphenyl)-3,5-dihydro-4,1-benzothiazepin-2-(1H)-one] | 218 to 220 °C | remarkable cytotoxic profile |  |  |  |  |  |  |  |  |  | 
2 | CC(C)c1ccc(C2SCC(=O)Nc3ccc(Cl)cc32)cc1 (stereo not drawn) [compound 12, 7-Chloro-5-(4′-isopropylphenyl)-3,5-dihydro-4,1-benzothiazepin-2-(1H)-one] | 240 to 243 °C |  | some solubility problems were appreciated | did not produce a dramatic loss of cell viability |  |  |  |  |  |  |  | 
3 | O=C1CSC(c2ccccc2)c2cnccc2N1 (stereo not drawn) [compound 38, 5-Phenyl-3,5-dihydropyrido[4,3-e][1,4]thiazepin-2-(1H)-one] | 138 to 143 °C |  |  |  | < 4.52 | neuroprotective profile against oxidative stress | 4.55 | nicely recovered cell viability |  |  |  | 
4 | CC(C)c1ccccc1C1SCC(=O)Nc2ccc(N(C)C)cc21 (stereo not drawn) [compound 21, 7-Dimethylamino-5-(2′-isopropylphenyl)-3,5-dihydro-4,1-benzothiazepin-2-(1H)-one] | 108 to 112 °C |  |  |  | 5.21 | clear trend to protect against oxidative stress |  | statistically significant dissipation of the glutamate-elicited neurotoxicity | noticeable mitigation of the NMDA-elicited Ca^2+ increase, even higher than that exerted by the reference compound memantine | > 4 ×10⁻⁶ cm/s | in a similar manner or even better than the reference compound nifedipine | 5.27
